According to patent publication US20110177156A1, “Sterol-Modified Amphiphilic Lipids” (priority 2007, published 2011):
Like-named read-outs stand apart in the source and are kept apart here.

What was measured:
[1] = system: phospholipase A2 (PLA2); conditions: for release of all-trans retinoic acid from SML7a: pH 8.8, Triton X-100
Protocol: Retinoic acid was used as the model drug for the investigation of enzyme triggered drug release. The release of all-trans retinoic acid from SML7a (1-cholesteryl-2-all-trans-retinoyl-sn-glycerophosphocholine) was evaluated with phospholipase A2 (PLA2) from a variety of sources including bovine, naja mossambica, and streptomyces vialaceoruber. All PLA2s were from Aldrich-Sigma. A chloroform solution of SML7a (50 μmol) in 50 mL round-bottom flask was evaporated by the rotavapor. The flask was placed under high vacuum overnight. The lipid film was hydrated in 10 mL pH 8.8 buffer containing 20 mM Triton X-100, 10 mM CaCl2, 10 mM HEPES, and 50 mM KCl. […] Aliquots of the solution (250 μL) were preincubated at 37° C. for 10 minutes, then used for the PLA2 assay. Aliquots of PLA2 solution (25 units in 250 μL pH 8.8 buffer of 10 mM HEPES, and 50 mM KCl) were preincubated at 37° C. for 10 minutes, and mixed with the aliquots of pre-warmed solution of SML7a. At different time point, the hydrolysis samples were analyzed by TLC, and quantified by densimeter.

[2] = target: T1, phospholipase A2 (PLA2) (Bos taurus, UniProt P00593); experiment: Drug release by phospholipase A2 (bovine); assay type: biochemical; conditions: bovine PLA2, 37° C., pH 8.8, Triton X-100
T1 construct: purchased Aldrich-Sigma
Description: All PLA2s were from Aldrich-Sigma. […] The flask was placed under high vacuum overnight.

T1 sequence (P00593 23-145): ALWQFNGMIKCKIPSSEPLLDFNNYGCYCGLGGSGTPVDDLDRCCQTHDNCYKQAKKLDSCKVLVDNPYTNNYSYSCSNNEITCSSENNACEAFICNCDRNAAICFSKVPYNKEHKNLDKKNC

Substance: 1-cholesteryl-2-all-trans-retinoyl-sn-glycerophosphocholine [SML7a]
- release of all-trans retinoic acid from SML7a ([1]; naja mossambica PLA2, 37° C.): completely release
- relative activity of the PLA2 on SML7a ([1]; naja mossambica PLA2 compared with the two other PLA2): highest activity
- release of all-trans retinoic acid from SML7a ([1]; streptomyces vialaceoruber PLA2, 37° C.): completely release
- release of all-trans retinoic acid from SML7a [2]: completely release
